Measured values: PubChem BioAssay (NCI)
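Test compounds were applied to cells in 96-well plates for 48 hours at 5 doses. Definition used: TGI = concentration required for complete inhibition of growth.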 Where a SMILES comes first, the peptide text is derived from it. The star is where a group is joined. OSu = O=C1CCC(=O)N1O*

Tests used:
Test in all cases: growth of human tumour cells (NCI), 48 h
SK-OV-3 ovarian = test system: SK-OV-3 ovarian
HCT-15 colon = test system: HCT-15 colon
SNB-75 CNS = test system: SNB-75 CNS
PC-3 prostate = test system: PC-3 prostate
HOP-62 NSCLC = test system: HOP-62 NSCLC
SW-620 colon = test system: SW-620 colon
K-562 leukemia = test system: K-562 leukemia
OVCAR-8 ovarian = test system: OVCAR-8 ovarian
SNB-19 CNS = test system: SNB-19 CNS
RXF 393 renal = test system: RXF 393 renal

Compound: COc1ccc2oc3c(C)cc4c(OC)nnc(OC)c4c3c2c1
- TGI (SK-OV-3 ovarian): > 100 µM
- TGI (HCT-15 colon): 63.9 µM
- TGI (SNB-75 CNS): > 100 µM
- TGI (PC-3 prostate): > 100 µM
- TGI (HOP-62 NSCLC): > 100 µM
- TGI (SW-620 colon): > 100 µM
- TGI (K-562 leukemia): > 100 µM
- TGI (OVCAR-8 ovarian): > 100 µM
- TGI (SNB-19 CNS): > 100 µM
- TGI (RXF 393 renal): > 100 µM

Compound: CCOC(=O)/C(C#N)=C/c1coc2cc(C)cc(C)c2c1=O
- TGI (SK-OV-3 ovarian): > 100 µM
- TGI (HCT-15 colon): > 100 µM
- TGI (SNB-75 CNS): > 100 µM
- TGI (PC-3 prostate): > 100 µM
- TGI (HOP-62 NSCLC): > 100 µM
- TGI (SW-620 colon): > 100 µM
- TGI (K-562 leukemia): > 100 µM
- TGI (OVCAR-8 ovarian): > 100 µM
- TGI (SNB-19 CNS): > 100 µM
- TGI (RXF 393 renal): > 100 µM

Compound: CCOC(=O)c1cc(-c2ccc(OC)cc2)c([N+](=O)[O-])n1C
- TGI (HCT-15 colon): > 10 µM
- TGI (SNB-75 CNS): > 10 µM
- TGI (K-562 leukemia): > 10 µM
- TGI (OVCAR-8 ovarian): > 10 µM
- TGI (SNB-19 CNS): > 10 µM
- TGI (RXF 393 renal): 4.81 µM

Compound: CCN(CC)CCCNC(=O)c1cc(-c2nccn2C)nc2ccccc12
- TGI (HCT-15 colon): > 100 µM
- TGI (SNB-75 CNS): > 100 µM
- TGI (PC-3 prostate): > 100 µM
- TGI (HOP-62 NSCLC): > 100 µM
- TGI (SW-620 colon): > 100 µM
- TGI (K-562 leukemia): > 100 µM
- TGI (OVCAR-8 ovarian): > 100 µM
- TGI (SNB-19 CNS): > 100 µM
- TGI (RXF 393 renal): > 100 µM

Compound: N#C/C(N)=C(\C#N)NC=NCCO
- TGI (SK-OV-3 ovarian): > 100 µM
- TGI (HCT-15 colon): > 100 µM
- TGI (SNB-75 CNS): > 100 µM
- TGI (PC-3 prostate): > 100 µM
- TGI (HOP-62 NSCLC): > 100 µM
- TGI (SW-620 colon): > 100 µM
- TGI (K-562 leukemia): > 100 µM
- TGI (OVCAR-8 ovarian): > 100 µM
- TGI (SNB-19 CNS): > 100 µM

Compound: CCOC(=O)c1cn2c(n1)sc1cc(F)ccc12
- TGI (SK-OV-3 ovarian): > 100 µM
- TGI (HCT-15 colon): > 100 µM
- TGI (SNB-75 CNS): > 100 µM
- TGI (PC-3 prostate): > 100 µM
- TGI (HOP-62 NSCLC): > 100 µM
- TGI (SW-620 colon): > 100 µM
- TGI (K-562 leukemia): > 100 µM
- TGI (OVCAR-8 ovarian): > 100 µM
- TGI (SNB-19 CNS): > 100 µM
- TGI (RXF 393 renal): > 100 µM

Compound: CCOC(=O)C12OC(OCC)(CC1(OCC)OCC)C1(CC1)C2=O (centres undefined)
- TGI (SK-OV-3 ovarian): > 100 µM
- TGI (HCT-15 colon): > 100 µM
- TGI (SNB-75 CNS): > 100 µM
- TGI (PC-3 prostate): > 100 µM
- TGI (HOP-62 NSCLC): > 100 µM
- TGI (SW-620 colon): > 100 µM
- TGI (K-562 leukemia): > 100 µM
- TGI (OVCAR-8 ovarian): > 100 µM
- TGI (SNB-19 CNS): > 100 µM

Compound: CC(N)/C(N)=N/O (centres undefined)
- TGI (SK-OV-3 ovarian): > 100 µM
- TGI (HCT-15 colon): > 100 µM
- TGI (SNB-75 CNS): > 100 µM
- TGI (PC-3 prostate): > 100 µM
- TGI (HOP-62 NSCLC): > 100 µM
- TGI (SW-620 colon): > 100 µM
- TGI (K-562 leukemia): > 100 µM
- TGI (OVCAR-8 ovarian): > 100 µM
- TGI (SNB-19 CNS): > 100 µM
- TGI (RXF 393 renal): > 100 µM

Compound: CCCCCCc1cc2cc(-c3cn4ccsc4n3)c(=O)oc2cc1O
- TGI (SK-OV-3 ovarian): > 100 µM
- TGI (HCT-15 colon): > 100 µM
- TGI (SNB-75 CNS): > 92.7 µM
- TGI (PC-3 prostate): > 100 µM
- TGI (HOP-62 NSCLC): > 100 µM
- TGI (SW-620 colon): > 100 µM
- TGI (K-562 leukemia): > 100 µM
- TGI (OVCAR-8 ovarian): > 71.8 µM
- TGI (SNB-19 CNS): > 100 µM
- TGI (RXF 393 renal): > 94.8 µM

Compound: NCCCCC(NC(=O)C(N)Cc1ccc(O)cc1)C(=O)NC(CCCCN)C(=O)NC(CCCCN)C(=O)ON1C(=O)CCC1=O (centres undefined) (H-YKKK-OSu; configuration not given here)
- TGI (HCT-15 colon): > 100 µM
- TGI (SNB-75 CNS): > 100 µM
- TGI (PC-3 prostate): > 100 µM
- TGI (HOP-62 NSCLC): > 100 µM
- TGI (SW-620 colon): > 100 µM
- TGI (K-562 leukemia): > 100 µM
- TGI (OVCAR-8 ovarian): > 100 µM
- TGI (SNB-19 CNS): > 100 µM
- TGI (RXF 393 renal): > 100 µM

Compound: N#Cc1nc(-c2cnccn2)oc1N
- TGI (SK-OV-3 ovarian): > 100 µM
- TGI (HCT-15 colon): > 100 µM
- TGI (SNB-75 CNS): > 100 µM
- TGI (PC-3 prostate): > 100 µM
- TGI (HOP-62 NSCLC): > 100 µM
- TGI (SW-620 colon): > 100 µM
- TGI (K-562 leukemia): > 100 µM
- TGI (OVCAR-8 ovarian): > 100 µM
- TGI (SNB-19 CNS): > 100 µM
- TGI (RXF 393 renal): > 100 µM

Compound: COc1cc(-c2cccs2)sc1-c1cccs1
- TGI (SK-OV-3 ovarian): > 100 µM
- TGI (HCT-15 colon): > 100 µM
- TGI (SNB-75 CNS): 66.5 µM
- TGI (SW-620 colon): > 100 µM
- TGI (K-562 leukemia): 51.5 µM
- TGI (OVCAR-8 ovarian): > 100 µM
- TGI (SNB-19 CNS): > 100 µM
- TGI (RXF 393 renal): 54.1 µM

Compound: NC(Cc1ccccc1)C(=O)NC(Cc1ccccc1)NC(=O)C(Cc1c[nH]c2ccccc12)C(=O)O (centres undefined)
- TGI (SK-OV-3 ovarian): > 100 µM
- TGI (HCT-15 colon): > 100 µM
- TGI (SNB-75 CNS): > 100 µM
- TGI (PC-3 prostate): > 100 µM
- TGI (HOP-62 NSCLC): > 100 µM
- TGI (SW-620 colon): > 100 µM
- TGI (OVCAR-8 ovarian): > 100 µM
- TGI (SNB-19 CNS): > 100 µM
- TGI (RXF 393 renal): > 100 µM

Compound: COCCOCOC(CCCCO)c1cc(C)c(O[Si](C)(C)C(C)(C)C)c(C)c1 (centres undefined)
- TGI (SK-OV-3 ovarian): 31.8 µM
- TGI (HCT-15 colon): 21.1 µM
- TGI (SNB-75 CNS): 23.9 µM
- TGI (HOP-62 NSCLC): 23 µM
- TGI (SW-620 colon): 21.1 µM
- TGI (K-562 leukemia): 16.3 µM
- TGI (OVCAR-8 ovarian): 18.7 µM
- TGI (SNB-19 CNS): 19.2 µM
- TGI (RXF 393 renal): 10.5 µM

Compound: O=c1[nH]c(=O)n(C2COC(CO)C2O)cc1F (centres undefined)
- TGI (SK-OV-3 ovarian): > 100 µM
- TGI (HCT-15 colon): > 100 µM
- TGI (SNB-75 CNS): > 100 µM
- TGI (PC-3 prostate): > 100 µM
- TGI (HOP-62 NSCLC): > 100 µM
- TGI (SW-620 colon): > 100 µM
- TGI (K-562 leukemia): > 100 µM
- TGI (OVCAR-8 ovarian): > 100 µM
- TGI (SNB-19 CNS): > 100 µM
- TGI (RXF 393 renal): 60.8 µM

Compound: CCCC/C=C/C=C/C=C/CCCCCCCC(=O)OCC(COC(=O)CCCCCCC/C=C/C1C=CC(CCCC)C(C(=O)O)C1C(=O)O)OC(=O)CCCCCCC/C=C/C=C/C=C/CCCC (centres undefined) (tested in a mixture with another compound)
- TGI (SK-OV-3 ovarian): 44.6 µM
- TGI (HCT-15 colon): 30.8 µM
- TGI (SNB-75 CNS): 36.7 µM
- TGI (HOP-62 NSCLC): 38.6 µM
- TGI (SW-620 colon): 18 µM
- TGI (K-562 leukemia): 44.2 µM
- TGI (OVCAR-8 ovarian): 44.5 µM
- TGI (SNB-19 CNS): 46.1 µM

Compound: Cc1ccc(S[C@@H](C)[C@@](O)(CF)CN(Cc2ccccc2)C(=O)C(F)(F)F)cc1
- TGI (HCT-15 colon): 55.5 µM
- TGI (PC-3 prostate): 94.3 µM
- TGI (SW-620 colon): 75.2 µM
- TGI (OVCAR-8 ovarian): > 100 µM
- TGI (SNB-19 CNS): 55 µM

Compound: Cc1cc(OC(=O)Nc2cccc3ccccc23)c(C(C)C)cc1C(=S)Nc1ccccc1
- TGI (SK-OV-3 ovarian): 51.7 µM
- TGI (HCT-15 colon): 29.2 µM
- TGI (PC-3 prostate): 42.2 µM
- TGI (HOP-62 NSCLC): 34.9 µM
- TGI (SW-620 colon): 43.3 µM
- TGI (K-562 leukemia): 43.2 µM
- TGI (OVCAR-8 ovarian): 28.8 µM
- TGI (SNB-19 CNS): 71.3 µM

Compound: C=C1c2nc3ccccc3n2C=C(c2ccc(OC)cc2)N1c1ccc(OC)cc1
- TGI (SK-OV-3 ovarian): 63.4 µM
- TGI (HCT-15 colon): > 100 µM
- TGI (SNB-75 CNS): 30.6 µM
- TGI (PC-3 prostate): > 100 µM
- TGI (SW-620 colon): > 100 µM
- TGI (K-562 leukemia): > 100 µM
- TGI (OVCAR-8 ovarian): 24.4 µM
- TGI (SNB-19 CNS): 33.9 µM
- TGI (RXF 393 renal): 29.8 µM

Compound: COc1ccc(NC(=S)c2ccc(CN3CCCCC3)s2)cc1
- TGI (SK-OV-3 ovarian): 31.8 µM
- TGI (HCT-15 colon): 26.9 µM
- TGI (PC-3 prostate): 62.2 µM
- TGI (HOP-62 NSCLC): 52.7 µM
- TGI (SW-620 colon): 42.4 µM
- TGI (K-562 leukemia): 42.1 µM
- TGI (OVCAR-8 ovarian): 45.4 µM
- TGI (SNB-19 CNS): 43.9 µM

Compound: CC1(C)[C@@H](Cn2cc(I)c(=O)[nH]c2=O)CC[C@@]1(C)CO
- TGI (SK-OV-3 ovarian): > 100 µM
- TGI (HCT-15 colon): > 100 µM
- TGI (SNB-75 CNS): > 100 µM
- TGI (PC-3 prostate): > 100 µM
- TGI (HOP-62 NSCLC): > 100 µM
- TGI (SW-620 colon): > 100 µM
- TGI (K-562 leukemia): > 100 µM
- TGI (SNB-19 CNS): > 100 µM
- TGI (RXF 393 renal): > 100 µM

Compound: Nc1nc(Cl)cc(OCC2(CO)CC=CC2)n1
- TGI (HCT-15 colon): > 100 µM
- TGI (SNB-75 CNS): > 100 µM
- TGI (PC-3 prostate): > 100 µM
- TGI (HOP-62 NSCLC): > 100 µM
- TGI (SW-620 colon): > 100 µM
- TGI (K-562 leukemia): > 100 µM
- TGI (OVCAR-8 ovarian): > 100 µM
- TGI (SNB-19 CNS): > 100 µM
- TGI (RXF 393 renal): > 100 µM
